Patent US6992079B2, “Substituted 11-phenyl-dibenzazepine compounds useful for the treatment or prevention of diseases characterized by abnormal cell proliferation” (President Fellows of Harvard College, priority 1997, dated 2006)
Read-outs that look alike come from different tables or passages of the source. Marks after values point to notes of the source that are not given here.

Columns and labels:
NCI-H23 = format: cell-based; conditions: NCI-H23
HT29 = assay: In-Vitro Testing SRB panel: Colon Cancer; format: cell-based
SN12C = assay: In-Vitro Testing SRB panel: Renal Cancer; format: cell-based
UACC-257 = assay: In-Vitro Testing SRB panel: Melanoma; format: cell-based; conditions: UACC-257
ROP-92 = format: cell-based
SF-268 = assay: In-Vitro Testing SRB panel: CNS Cancer; format: cell-based; conditions: SF-268
TK-10 = assay: In-Vitro Testing SRB panel: Renal Cancer; format: cell-based; conditions: TK-10
M14 = assay: In-Vitro Testing SRB panel: Melanoma; format: cell-based; conditions: M14
HS 578T = assay: In-Vitro Testing SRB panel: Breast Cancer; format: cell-based
RPMI-8226 = assay: In-Vitro Testing SRB panel: Leukemia; format: cell-based; conditions: RPMI-8226
BT-549 = assay: In-Vitro Testing SRB panel: Breast Cancer; format: cell-based; conditions: BT-549
[1] = Preliminary toxicology, subcutaneous injection for 14 days; format: in vivo, CD-1 female mice; conditions: CD-1 female mice; 80 mg/kg/day s.c. 14 days
Description: The toxicological effects of CLT, and compounds 28, 30 and 31 were tested in CD-1 female mice. A dose of 80 mg/kg/day was given to each mouse via subcutaneous injection for a period of 14 days. Preliminary toxicological data was determined by measuring body weight, gross pathology of organs blood chemistry and histology. The vehicle used was DMF 12%+2% Tween 20 88%.

SNB-19 = assay: In-Vitro Testing SRB panel: CNS Cancer; format: cell-based; conditions: SNB-19
RL-60 (TS) = assay: In-Vitro Testing SRB panel: Leukemia; format: cell-based
[2] = In-Vitro Testing SRB panel: Renal Cancer; format: cell-based
LOX IMVI = assay: In-Vitro Testing SRB panel: Melanoma; format: cell-based
ROP-62 = format: cell-based
[3] = Homo sapiens, read-out: LC50 (the source's name)

## COc1cccc2c1C(c1ccccc1Cl)c1cc(Cl)ccc1N(C(=O)c1ccc([N+](=O)[O-])cc1)C2 (stereo not shown) [Compound 31]
NCI-H23; Homo sapiens
  GI50: 2.65 µM
NCI-H23; [3]
  CC50: > 100 µM
NCI-H23
  TGI: >1.00E−04 Molar
NCI-H23; log10 conc -4 Molar
  Percent Growth: 19%
NCI-H23; log10 conc -5 Molar
  Percent Growth: 33%
NCI-H23; log10 conc -6 Molar
  Percent Growth: 62%
NCI-H23; log10 conc -7 Molar
  Percent Growth: 92%
NCI-H23; log10 conc -8 Molar
  Percent Growth: 96%
HT29; HI29
  TGI: >1.00E−04 Molar
HT29; HI29, log10 conc -4 Molar
  Percent Growth: 16%
HT29; HI29, log10 conc -5 Molar
  Percent Growth: 26%
HT29; HI29, log10 conc -6 Molar
  Percent Growth: 47%
HT29; HI29, log10 conc -7 Molar
  Percent Growth: 91%
HT29; HI29, log10 conc -8 Molar
  Percent Growth: 97%
HT29; Homo sapiens, HT-29
  GI50: 0.866 µM
HT29; Homo sapiens, HT-29, HI29, read-out: LC50 (the source's name)
  CC50: > 100 µM
SN12C
  TGI: >1.00E−04 Molar
SN12C; Homo sapiens
  GI50: 6.93 µM
SN12C; [3]
  CC50: > 100 µM
SN12C; log10 conc -4 Molar
  Percent Growth: 30%
SN12C; log10 conc -5 Molar
  Percent Growth: 43%
SN12C; log10 conc -6 Molar
  Percent Growth: 85%
SN12C; log10 conc -7 Molar
  Percent Growth: 101%
SN12C; log10 conc -8 Molar
  Percent Growth: 94%
UACC-257; Homo sapiens
  GI50: 0.94 µM
UACC-257; [3]
  CC50: > 100 µM
UACC-257
  TGI: >1.00E−04 Molar
UACC-257; log10 conc -4 Molar
  Percent Growth: 7%
UACC-257; log10 conc -5 Molar
  Percent Growth: 27%
UACC-257; log10 conc -6 Molar
  Percent Growth: 49%
UACC-257; log10 conc -7 Molar
  Percent Growth: 91%
UACC-257; log10 conc -8 Molar
  Percent Growth: 98%
ROP-92; Homo sapiens
  GI50: 5.53 µM
ROP-92; Homo sapiens, ROP-92, read-out: LC50 (the source's name)
  CC50: > 100 µM
ROP-92; ROP-92
  TGI: >1.00E−04 Molar
ROP-92; ROP-92, log10 conc -4 Molar
  Percent Growth: 27%
ROP-92; ROP-92, log10 conc -5 Molar
  Percent Growth: 42%
ROP-92; ROP-92, log10 conc -6 Molar
  Percent Growth: 74%
ROP-92; ROP-92, log10 conc -7 Molar
  Percent Growth: 88%
ROP-92; ROP-92, log10 conc -8 Molar
  Percent Growth: 89%
SF-268; Homo sapiens
  GI50: 5.28 µM
SF-268; [3]
  CC50: > 100 µM
SF-268
  TGI: >1.00E−04 Molar
SF-268; log10 conc -4 Molar
  Percent Growth: 46%
SF-268; log10 conc -5 Molar
  Percent Growth: 47%
SF-268; log10 conc -6 Molar
  Percent Growth: 59%
SF-268; log10 conc -7 Molar
  Percent Growth: 105%
SF-268; log10 conc -8 Molar
  Percent Growth: 94%
TK-10; Homo sapiens
  GI50: 16.9 µM
TK-10; [3]
  CC50: > 100 µM
TK-10
  TGI: >1.00E−04 Molar
TK-10; log10 conc -4 Molar
  Percent Growth: 34%
TK-10; log10 conc -5 Molar
  Percent Growth: 55%
TK-10; log10 conc -6 Molar
  Percent Growth: 85%
TK-10; log10 conc -7 Molar
  Percent Growth: 105%
TK-10; log10 conc -8 Molar
  Percent Growth: 102%
M14; Homo sapiens
  GI50: 1.22 µM
M14; [3]
  CC50: > 100 µM
M14
  TGI: >1.00E−04 Molar
M14; log10 conc -4 Molar
  Percent Growth: 21%
M14; log10 conc -5 Molar
  Percent Growth: 30%
M14; log10 conc -6 Molar
  Percent Growth: 52%
M14; log10 conc -7 Molar
  Percent Growth: 93%
M14; log10 conc -8 Molar
  Percent Growth: 92%
HS 578T; HS 578T
  TGI: >1.00E−04 Molar
HS 578T; HS 578T, log10 conc -4 Molar
  Percent Growth: 17%
HS 578T; HS 578T, log10 conc -5 Molar
  Percent Growth: 31%
HS 578T; HS 578T, log10 conc -6 Molar
  Percent Growth: 49%
HS 578T; HS 578T, log10 conc -7 Molar
  Percent Growth: 74%
HS 578T; HS 578T, log10 conc -8 Molar
  Percent Growth: 90%
HS 578T; Homo sapiens, Hs-578T
  GI50: 0.913 µM
HS 578T; Homo sapiens, HS 578T, read-out: LC50 (the source's name)
  CC50: > 100 µM
RPMI-8226; Homo sapiens
  GI50: 0.327 µM
RPMI-8226; [3]
  CC50: > 100 µM
RPMI-8226
  TGI: >1.00E−04 Molar
RPMI-8226; log10 conc -4 Molar
  Percent Growth: 21%
RPMI-8226; log10 conc -5 Molar
  Percent Growth: 23%
RPMI-8226; log10 conc -6 Molar
  Percent Growth: 36%
RPMI-8226; log10 conc -7 Molar
  Percent Growth: 65%
RPMI-8226; log10 conc -8 Molar
  Percent Growth: 82%
BT-549
  TGI: >1.00E−04 Molar
BT-549; log10 conc -4 Molar
  Percent Growth: 11%
BT-549; log10 conc -5 Molar
  Percent Growth: 43%
BT-549; log10 conc -6 Molar
  Percent Growth: 59%
BT-549; log10 conc -7 Molar
  Percent Growth: 94%
BT-549; log10 conc -8 Molar
  Percent Growth: 92%
BT-549; Homo sapiens
  GI50: 3.83 µM
BT-549; [3]
  CC50: > 100 µM
[1]
  Body Weight Change: 113%
  Liver Weight: 1.49 ± 0.04^c g
  RBC: 8.6 ± 1.6 10^6/mm^3
  WBC: 7.2 ± 1.7 10^3/mm^3
  WBC, RBC, BUN and creatine levels: no differences were found
SNB-19; Homo sapiens
  GI50: 2.61 µM
SNB-19; [3]
  CC50: > 100 µM
SNB-19
  TGI: 5.66E−05 Molar
SNB-19; log10 conc -4 Molar
  Percent Growth: −5%
SNB-19; log10 conc -5 Molar
  Percent Growth: 16%
SNB-19; log10 conc -6 Molar
  Percent Growth: 74%
SNB-19; log10 conc -7 Molar
  Percent Growth: 99%
SNB-19; log10 conc -8 Molar
  Percent Growth: 102%
RL-60 (TS); Homo sapiens
  GI50: 0.512 µM
RL-60 (TS); Homo sapiens, RL-60 (TB), read-out: LC50 (the source's name)
  CC50: > 100 µM
RL-60 (TS); RL-60 (TB)
  TGI: 1.28E−05 Molar
RL-60 (TS); RL-60 (TB), log10 conc -4 Molar
  Percent Growth: −19%
RL-60 (TS); RL-60 (TB), log10 conc -5 Molar
  Percent Growth: 3%
RL-60 (TS); RL-60 (TB), log10 conc -6 Molar
  Percent Growth: 39%
RL-60 (TS); RL-60 (TB), log10 conc -7 Molar
  Percent Growth: 77%
RL-60 (TS); RL-60 (TB), log10 conc -8 Molar
  Percent Growth: 81%
[2]; DO-31
  TGI: >1.00E−04 Molar
[2]; DO-31, log10 conc -4 Molar
  Percent Growth: 1%
[2]; DO-31, log10 conc -5 Molar
  Percent Growth: 19%
[2]; DO-31, log10 conc -6 Molar
  Percent Growth: 61%
[2]; DO-31, log10 conc -7 Molar
  Percent Growth: 104%
[2]; DO-31, log10 conc -8 Molar
  Percent Growth: 94%
[2]; Homo sapiens
  GI50: 1.82 µM
[2]; Homo sapiens, DO-31, read-out: LC50 (the source's name)
  CC50: > 100 µM
LOX IMVI
  TGI: >1.00E−04 Molar
LOX IMVI; Homo sapiens
  GI50: 0.617 µM
LOX IMVI; [3]
  CC50: > 100 µM
LOX IMVI; log10 conc -4 Molar
  Percent Growth: 13%
LOX IMVI; log10 conc -5 Molar
  Percent Growth: 12%
LOX IMVI; log10 conc -6 Molar
  Percent Growth: 39%
LOX IMVI; log10 conc -7 Molar
  Percent Growth: 93%
LOX IMVI; log10 conc -8 Molar
  Percent Growth: 97%
ROP-62; Homo sapiens
  GI50: > 100 µM
ROP-62; Homo sapiens, ROP-62, read-out: LC50 (the source's name)
  CC50: > 100 µM
ROP-62; ROP-62
  TGI: >1.00E−04 Molar
ROP-62; ROP-62, log10 conc -4 Molar
  Percent Growth: 50%
ROP-62; ROP-62, log10 conc -5 Molar
  Percent Growth: 79%
ROP-62; ROP-62, log10 conc -6 Molar
  Percent Growth: 88%
ROP-62; ROP-62, log10 conc -7 Molar
  Percent Growth: 105%
ROP-62; ROP-62, log10 conc -8 Molar
  Percent Growth: 100%
